Experimental data taken from the supplement of paper PMC6045584.
± gives the standard deviation of the averaged measurements.

Experiments:
NILOTINIB = compound: Cc1cn(-c2cc(NC(=O)c3ccc(C)c(Nc4nccc(-c5cccnc5)n4)c3)cc(C(F)(F)F)c2)cn1 [NILOTINIB]; assay: surviving fraction relative to DMSO-only wells; higher = less growth inhibition; conditions: exposure time: 5 days
Method in brief: (§1)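 At 250–500 cells per well in 384-well plates, log-phase tumour cell lines were seeded and, 24 hours on, exposed continuously for five days to inhibitors at 0.5, 1, 5, 10, 50, 100, 500 and 1000 nM. Viability readout was CellTiter-Glo luminescence, reported as surviving fraction normalised to the median of DMSO-only wells.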

BEZ-235 = compound: Cn1c(=O)n(-c2ccc(C(C)(C)C#N)cc2)c2c3cc(-c4cnc5ccccc5c4)ccc3ncc21 [BEZ-235]; assay: as above; conditions: exposure time: 5 days
Method in brief: as §1

Row | Test System | surviving fraction (NILOTINIB; 0.5 nM) | surviving fraction (NILOTINIB; 1 nM) | surviving fraction (NILOTINIB; 5 nM) | surviving fraction (NILOTINIB; 10 nM) | surviving fraction (NILOTINIB; 50 nM) | surviving fraction (NILOTINIB; 100 nM) | surviving fraction (NILOTINIB; 500 nM) | surviving fraction (NILOTINIB; 1000 nM) | surviving fraction (BEZ-235; 0.5 nM) | surviving fraction (BEZ-235; 1 nM) | surviving fraction (BEZ-235; 5 nM) | surviving fraction (BEZ-235; 10 nM) | surviving fraction (BEZ-235; 50 nM) | surviving fraction (BEZ-235; 100 nM) | surviving fraction (BEZ-235; 500 nM) | surviving fraction (BEZ-235; 1000 nM)
1 | DU4475 BREAST | 1.12 ± 0.018 | 1.06 ± 0.023 | 1.14 ± 0.13 | 1.06 ± 0.063 | 0.925 ± 0.088 | 1.06 ± 0.1 | 1.05 ± 0.066 | 0.9 ± 0.061 | 0.914 ± 0.16 | 1.05 ± 0.13 | 0.919 ± 0.16 | 0.835 ± 0.1 | 0.525 ± 0.064 | 0.194 ± 0.018 | 0.0427 ± 0.0085 | 0.035 ± 0.0035
2 | MHM BONE | 1.01 ± 0.028 | 0.999 ± 0.05 | 1.09 ± 0.014 | 1.06 ± 0.028 | 1.11 ± 0.023 | 1.13 ± 0.025 | 1.135 ± 0.0021 | 1.19 ± 0.059 | 1.01 ± 0.021 | 0.995 ± 0.02 | 1.025 ± 0.0021 | 1.036 ± 0.0079 | 0.991 ± 0.018 | 0.885 ± 0.028 | 0.427 ± 0.011 | 0.351 ± 0.016
3 | HT1080 SOFT TISSUE | 1.02 ± 0.058 | 1.04 ± 0.032 | 1.06 ± 0.027 | 1.04 ± 0.011 | 0.991 ± 0.02 | 0.978 ± 0.027 | 0.98 ± 0.027 | 0.957 ± 0.027 | 0.985 ± 0.022 | 1.03 ± 0.011 | 1 ± 0.025 | 0.996 ± 0.055 | 0.6683 ± 0.0059 | 0.496 ± 0.021 | 0.221 ± 0.01 | 0.162 ± 0.0061
4 | MDAMB453 BREAST | 1 ± 0.045 | 0.998 ± 0.097 | 1.03 ± 0.077 | 1.05 ± 0.088 | 0.91 ± 0.02 | 0.925 ± 0.016 | 0.895 ± 0.0087 | 0.874 ± 0.068 | 1.05 ± 0.066 | 1.05 ± 0.022 | 1.09 ± 0.015 | 1.05 ± 0.057 | 0.574 ± 0.046 | 0.359 ± 0.025 | 0.197 ± 0.011 | 0.169 ± 0.012
5 | NOS1 BONE | 0.958 ± 0.048 | 1.11 ± 0.029 | 1.07 ± 0.093 | 1.21 ± 0.048 | 1.02 ± 0.045 | 0.849 ± 0.013 | 0.666 ± 0.019 | 0.606 ± 0.03 | 1.09 ± 0.1 | 1.08 ± 0.089 | 1.08 ± 0.085 | 1.08 ± 0.046 | 0.6 ± 0.036 | 0.49 ± 0.11 | 0.206 ± 0.024 | 0.166 ± 0.032
6 | HOS BONE | 1.05 ± 0.024 | 1.014 ± 0.0049 | 1.05 ± 0.033 | 1.05 ± 0.025 | 1.065 ± 0.0095 | 1.04 ± 0.026 | 1.03 ± 0.025 | 1.02 ± 0.041 | 1.02 ± 0.034 | 1.05 ± 0.036 | 1.02 ± 0.014 | 1.01 ± 0.018 | 0.763 ± 0.034 | 0.591 ± 0.017 | 0.317 ± 0.015 | 0.285 ± 0.015
7 | CAL120 BREAST | 1.02 ± 0.041 | 1.02 ± 0.012 | 1.04 ± 0.052 | 1.03 ± 0.035 | 1.04 ± 0.027 | 1.01 ± 0.072 | 1.04 ± 0.081 | 1.02 ± 0.049 | 0.962 ± 0.022 | 0.9768 ± 0.0038 | 0.98 ± 0.011 | 0.911 ± 0.017 | 0.502 ± 0.029 | 0.296 ± 0.0058 | 0.102 ± 0.0053 | 0.0963 ± 0.0037
8 | MDAMB134 BREAST | 0.803 ± 0.068 | 1.15 ± 0.12 | 0.865 ± 0.013 | 0.808 ± 0.15 | 0.74 ± 0.12 | 0.72 ± 0.099 | 0.672 ± 0.034 | 0.716 ± 0.13 | 1.08 ± 0.058 | 1.17 ± 0.033 | 1.11 ± 0.024 | 1.09 ± 0.021 | 0.881 ± 0.025 | 0.83 ± 0.083 | 0.474 ± 0.15 | 0.476 ± 0.03
9 | LNCAP PROSTATE | 1.12 ± 0.083 | 1.13 ± 0.12 | 1.08 ± 0.011 | 1.01 ± 0.072 | 1.14 ± 0.076 | 1.1 ± 0.15 | 1.16 ± 0.031 | 1.03 ± 0.066 | 0.998 ± 0.11 | 0.934 ± 0.06 | 0.887 ± 0.14 | 0.9 ± 0.12 | 0.405 ± 0.016 | 0.255 ± 0.039 | 0.087 ± 0.014 | 0.0853 ± 0.011
10 | LM7 BONE | 1.02 ± 0.027 | 0.9597 ± 0.0087 | 1.07 ± 0.03 | 1.01 ± 0.043 | 0.898 ± 0.084 | 0.957 ± 0.076 | 0.79 ± 0.02 | 0.76 ± 0.07 | 0.941 ± 0.042 | 1 ± 0.1 | 1.02 ± 0.094 | 1.07 ± 0.062 | 0.975 ± 0.077 | 0.845 ± 0.063 | 0.366 ± 0.016 | 0.312 ± 0.024
11 | SG28 HEADNECK | 1.07 ± 0.044 | 1.05 ± 0.025 | 1.07 ± 0.062 | 1.07 ± 0.042 | 0.782 ± 0.042 | 0.907 ± 0.068 | 0.84 ± 0.013 | 0.903 ± 0.067 | 1.13 ± 0.053 | 1.09 ± 0.085 | 0.945 ± 0.2 | 0.965 ± 0.063 | 0.762 ± 0.053 | 0.632 ± 0.087 | 0.459 ± 0.039 | 0.342 ± 0.032
12 | CME SYNOVIAL | 1.17 ± 0.064 | 1.15 ± 0.24 | 1.31 ± 0.15 | 1.21 ± 0.091 | 1.1 ± 0.12 | 1 ± 0.099 | 0.926 ± 0.11 | 0.483 ± 0.026 | 1.18 ± 0.12 | 1.28 ± 0.12 | 1.16 ± 0.066 | 1.26 ± 0.11 | 1.3 ± 0.11 | 1.12 ± 0.087 | 0.959 ± 0.076 | 0.713 ± 0.14
13 | MDAMB361 BREAST | 0.632 ± 0.033 | 0.953 ± 0.057 | 0.69 ± 0.11 | 0.743 ± 0.06 | 0.533 ± 0.078 | 0.601 ± 0.059 | 0.619 ± 0.02 | 0.539 ± 0.1 | 0.888 ± 0.068 | 0.854 ± 0.045 | 0.904 ± 0.03 | 0.882 ± 0.051 | 0.794 ± 0.078 | 0.636 ± 0.037 | 0.355 ± 0.015 | 0.313 ± 0.02
14 | HCC202 BREAST | 1.36 ± 0.11 | 1.08 ± 0.044 | 0.83 ± 0.15 | 0.987 ± 0.5 | 1.01 ± 0.22 | 1.09 ± 0.069 | 1.08 ± 0.052 | 0.912 ± 0.034 | 1.02 ± 0.32 | 1.07 ± 0.036 | 1.21 ± 0.22 | 1.34 ± 0.32 | 1.07 ± 0.32 | 0.722 ± 0.27 | 0.388 ± 0.089 | 0.232 ± 0.046
15 | MCF7 BREAST | 0.969 ± 0.072 | 0.912 ± 0.05 | 0.948 ± 0.023 | 0.943 ± 0.017 | 0.992 ± 0.064 | 0.995 ± 0.073 | 0.942 ± 0.068 | 0.97 ± 0.078 | 0.934 ± 0.071 | 0.961 ± 0.017 | 0.943 ± 0.064 | 0.941 ± 0.036 | 0.681 ± 0.023 | 0.5461 ± 0.0041 | 0.328 ± 0.012 | 0.2896 ± 0.0025
16 | CAL72 BONE | 1.02 ± 0.031 | 1.06 ± 0.018 | 1.03 ± 0.038 | 1.06 ± 0.018 | 0.979 ± 0.033 | 1.02 ± 0.013 | 0.969 ± 0.062 | 0.977 ± 0.06 | 1.05 ± 0.026 | 1.06 ± 0.041 | 1.07 ± 0.043 | 1.03 ± 0.041 | 0.754 ± 0.053 | 0.369 ± 0.021 | 0.142 ± 0.011 | 0.124 ± 0.0079
